pIC50: −log10 of the molar value.
What was measured:
[1] = target: mTOR (human recombinant aa mTOR 1360-2549) (Homo sapiens (Human), UniProt P42345); assay: mTOR enzymatic test by TR-FRET (phosphorylation of GFP-4EBP1); type: biochemical
Outline: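 After a 30 min room-temperature kinase reaction, EDTA (10 mM final) and Tb-labelled phospho-Thr46 antibody (2 nM final) were added and incubated 60 min. Energy transfer from Tb to phosphorylated GFP-4EBP1 was read at 340 nm excitation, emissions 490/520 nm. Values derive from the 520/490 fluorescence ratio.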

PI3Kα (p110α/p85α) = PI3Kα (p110α/p85α) (Homo sapiens (Human), UniProt P42336); assay: PI3Kα enzymatic test by measuring the consumption of ATP; type: biochemical
PI3Kα (p110α/p85α), sequence (P42336 whole entry): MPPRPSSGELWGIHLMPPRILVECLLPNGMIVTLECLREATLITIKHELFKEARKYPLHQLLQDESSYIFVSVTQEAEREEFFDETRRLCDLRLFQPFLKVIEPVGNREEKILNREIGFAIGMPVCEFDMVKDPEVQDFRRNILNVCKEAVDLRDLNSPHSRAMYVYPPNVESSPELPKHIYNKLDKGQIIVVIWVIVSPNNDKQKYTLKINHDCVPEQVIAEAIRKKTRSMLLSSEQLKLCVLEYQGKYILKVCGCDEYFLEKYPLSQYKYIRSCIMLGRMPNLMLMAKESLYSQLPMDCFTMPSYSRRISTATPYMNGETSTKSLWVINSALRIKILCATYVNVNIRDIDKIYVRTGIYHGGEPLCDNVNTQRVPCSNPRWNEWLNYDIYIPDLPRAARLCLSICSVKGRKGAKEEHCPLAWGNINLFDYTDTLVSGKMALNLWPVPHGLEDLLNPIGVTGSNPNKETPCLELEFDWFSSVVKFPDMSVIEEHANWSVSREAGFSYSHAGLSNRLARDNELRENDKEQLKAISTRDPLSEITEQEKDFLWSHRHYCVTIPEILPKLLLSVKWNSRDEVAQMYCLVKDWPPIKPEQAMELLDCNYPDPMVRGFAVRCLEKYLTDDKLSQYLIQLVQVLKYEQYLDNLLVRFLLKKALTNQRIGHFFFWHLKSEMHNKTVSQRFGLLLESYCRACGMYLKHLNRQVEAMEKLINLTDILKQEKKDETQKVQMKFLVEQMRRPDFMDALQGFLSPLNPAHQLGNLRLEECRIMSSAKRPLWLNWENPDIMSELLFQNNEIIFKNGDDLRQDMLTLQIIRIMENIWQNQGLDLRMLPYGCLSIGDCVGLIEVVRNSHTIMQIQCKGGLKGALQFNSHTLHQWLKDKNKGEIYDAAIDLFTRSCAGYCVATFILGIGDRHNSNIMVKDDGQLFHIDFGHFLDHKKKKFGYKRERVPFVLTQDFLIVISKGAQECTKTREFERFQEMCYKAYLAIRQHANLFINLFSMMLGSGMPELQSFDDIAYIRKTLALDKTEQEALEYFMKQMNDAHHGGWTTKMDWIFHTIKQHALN
PI3Kα (p110α/p85α), sequence (P27986 whole entry partner): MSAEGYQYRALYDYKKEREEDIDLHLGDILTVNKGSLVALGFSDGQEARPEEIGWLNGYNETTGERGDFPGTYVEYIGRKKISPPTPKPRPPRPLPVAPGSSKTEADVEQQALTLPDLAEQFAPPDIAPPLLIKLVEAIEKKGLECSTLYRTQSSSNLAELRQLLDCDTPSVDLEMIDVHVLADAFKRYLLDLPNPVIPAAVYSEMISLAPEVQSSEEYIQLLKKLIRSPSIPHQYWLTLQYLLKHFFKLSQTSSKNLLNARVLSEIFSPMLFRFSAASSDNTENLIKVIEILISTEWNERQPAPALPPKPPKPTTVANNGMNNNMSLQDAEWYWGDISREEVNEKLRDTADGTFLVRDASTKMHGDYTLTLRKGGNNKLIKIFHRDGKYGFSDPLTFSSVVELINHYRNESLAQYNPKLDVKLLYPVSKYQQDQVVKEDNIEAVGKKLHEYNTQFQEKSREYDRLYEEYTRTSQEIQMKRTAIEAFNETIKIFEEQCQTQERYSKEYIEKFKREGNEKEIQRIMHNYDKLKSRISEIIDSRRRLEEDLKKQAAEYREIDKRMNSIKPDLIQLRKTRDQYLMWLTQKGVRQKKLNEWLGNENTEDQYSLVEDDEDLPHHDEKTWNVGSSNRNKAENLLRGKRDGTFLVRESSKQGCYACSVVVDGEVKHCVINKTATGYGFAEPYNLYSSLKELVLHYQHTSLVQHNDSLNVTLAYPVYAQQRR
Outline: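 ATP consumption read out by KinaseGlo luminescence after a 90 min reaction of 1.7 μg/ml PI3Kα (p110α/p85α) with 2 μM ATP and 50 μM PIP2, buffered at pH 7.5 (Tris, 10 mM MgCl2, 1 mM EGTA, 0.03% Chaps, 1 mM DTT). Threefold dilution series over ≥10 000-fold range yield IC50.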

Akt-pS473 in U87MG cells = details: Homo sapiens, U-87 MG; for IC50: read-out: U87 Akt-pS473 % Inhibition or IC50, nM (IC50), U87MG cells
Method: Model 3: Cellular Test of Phosphorylation of the Epitope S473 of the Akt Protein on the U87MG Line Via an ELISA Test
An electrochemiluminescence signal is generated by a ruthenium-labelled anti-rabbit antibody.
After culturing for 16-20 hours (the cells are at 100% of confluence) at 37° C. under 5% CO2, 1 μl of the chemical compounds in 100% DMSO (1% DMSO final concentration on the cells) is added. The cells are incubated with the compounds for 3 hours at 37° C. under 5% CO2.
The free sites are blocked with 150 μl/well of a buffer of 50 mM Tris pH 7.5, 0.15 M NaCl, 0.02% Tween 20, 3% BSA with stirring at 450 rpm for 1 hour at room temperature, followed by a step of washing with 3×300 μl of a buffer of 50 mM Tris pH 7.5, 0.15 M NaCl, 0.02% Tween 20.
15 μl of cell lysate are mixed with 15 μl of a 50 mM buffer of Tris pH 7.5, 0.15 M NaCl, 0.02% Tween 20, 1% BSA in a precoated ELISA plate (see above), and incubated for 1 hour at room temperature with stirring, followed by a step of washing with 3×300 μl of a buffer of 50 mM Tris pH 7.5, 0.15 M NaCl, 0.02% Tween 20. The pS473 epitope of Akt is detected with a rabbit polyclonal antibody (Cell Signaling, SC9271), diluted 100-fold in 50 mM Tris pH 7.5, 0.15 M NaCl, 0.02% Tween 20, 1% BSA, 25 μl/well (incubation for 1 hour at room temperature with stirring at 450 rpm).
After washing (see above), revelation is performed with a ruthenium-labelled anti-rabbit antibody (MSD R32AB1), diluted 3000-fold in a 50 mM buffer of Tris pH 7.5, 0.15 M NaCl, 0.02% Tween 20, 1% BSA, 25 μl/well, followed by incubation for 1 hour at room temperature with stirring at 450 rpm, and the plates are covered with aluminium.
After a further washing step, the plates are emptied and 150 μl of MSD Read Buffer T diluted fourfold with water are added. The electrochemiluminescence is measured on the MSD Sector Imager 6000.

U87MG tumour cells = assay: Test of in vitro proliferation of U87MG tumour cells; type: cell-based; details: Homo sapiens, U-87 MG, 72 h, U87MG cells, 72 hours; read-out: U87 Cell Proliferation IC50
Method: Model 4: Test of in vitro Proliferation of U87MG Tumour Cells.
The cell growth is determined with the reagent CellTiter 96 AQueous One Solution Cell Proliferation Assay from Promega (Cat. No. G3581).

mTOR (human recombinant aa mTOR 1360-2549), sequence (P42345 1360-2549): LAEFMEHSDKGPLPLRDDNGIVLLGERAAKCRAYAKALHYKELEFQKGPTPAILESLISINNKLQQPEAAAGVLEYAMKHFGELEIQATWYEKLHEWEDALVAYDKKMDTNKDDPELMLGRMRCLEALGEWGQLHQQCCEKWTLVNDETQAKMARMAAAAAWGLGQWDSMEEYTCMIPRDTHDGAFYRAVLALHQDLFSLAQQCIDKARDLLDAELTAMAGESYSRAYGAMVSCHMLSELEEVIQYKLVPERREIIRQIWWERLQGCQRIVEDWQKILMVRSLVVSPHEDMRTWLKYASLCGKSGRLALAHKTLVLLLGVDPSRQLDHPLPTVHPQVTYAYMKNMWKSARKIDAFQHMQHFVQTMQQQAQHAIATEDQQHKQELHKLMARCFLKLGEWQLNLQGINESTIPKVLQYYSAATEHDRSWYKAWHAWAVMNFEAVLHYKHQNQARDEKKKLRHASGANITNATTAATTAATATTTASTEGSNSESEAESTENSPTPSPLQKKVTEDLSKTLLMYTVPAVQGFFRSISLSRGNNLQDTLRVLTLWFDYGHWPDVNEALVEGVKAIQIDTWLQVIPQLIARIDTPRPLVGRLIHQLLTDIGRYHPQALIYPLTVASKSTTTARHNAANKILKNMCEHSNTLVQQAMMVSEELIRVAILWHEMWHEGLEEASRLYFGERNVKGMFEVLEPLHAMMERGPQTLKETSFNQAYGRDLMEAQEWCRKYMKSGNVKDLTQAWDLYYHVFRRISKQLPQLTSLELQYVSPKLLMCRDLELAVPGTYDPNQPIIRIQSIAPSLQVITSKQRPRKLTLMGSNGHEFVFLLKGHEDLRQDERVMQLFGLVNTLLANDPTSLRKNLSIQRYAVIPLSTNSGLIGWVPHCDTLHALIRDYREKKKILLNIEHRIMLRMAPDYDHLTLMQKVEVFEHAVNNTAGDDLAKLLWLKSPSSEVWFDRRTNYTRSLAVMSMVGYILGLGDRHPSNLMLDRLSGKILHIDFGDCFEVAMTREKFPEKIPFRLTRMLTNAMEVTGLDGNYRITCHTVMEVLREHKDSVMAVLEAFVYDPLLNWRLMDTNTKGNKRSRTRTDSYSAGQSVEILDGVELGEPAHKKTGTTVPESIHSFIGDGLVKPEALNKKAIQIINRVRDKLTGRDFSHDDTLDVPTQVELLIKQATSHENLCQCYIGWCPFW

SMILES	pIC50 [1]	PI3Ka IC50 (PI3Kα (p110α/p85α))	IC50 (Akt-pS473 in U87MG cells)	pIC50 (U87MG tumour cells)	inhibition at 1 µM (Akt-pS473 in U87MG cells; read-out: U87 Akt-pS473 % Inhibition)
CCN1CC(C)(C)Oc2nc(N3CC4CCC(C3)O4)nc(-c3ccc(NC(=O)OCCO)cc3F)c2C1=O [Example 246, {4-[6-Ethyl-8,8-dimethyl-2-(8-oxa-3-azabicyclo[3.2.1]oct-3-yl)-5-oxo-5,6,7,8-tetrahydro-9-oxa-1,3,6-triazabenzocyclohepten-4-yl]-3-fluorophenyl}carbamic acid 2-hydroxyethyl ester]	7.09	>10000 nM	240 nM	5.80	
CCNC(=O)Nc1ccc(-c2nc(N3CC4CCC(C3)O4)nc3c2C(=O)N(CCC(=O)OC(C)(C)C)CC(C)(C)O3)cc1 [Example 120, 3-[4-[4-(3-Ethylureido)phenyl]-8,8-dimethyl-2-(8-oxa-3-azabicyclo[3.2.1]oct-3-yl)-5-oxo-7,8-dihydro-5H-9-oxa-1,3,6-triazabenzocyclohepten-6-yl]propionic acid tert-butyl ester]	6.45	>10000 nM	1180 nM	5.65	
CCN1CC(C)(C)Oc2nc(N3CC4CCC(C3)O4)nc(-c3ccc(NC(=O)NC)cc3F)c2C1=O [Example 47, 1-{4-[6-Ethyl-8,8-dimethyl-2-(8-oxa-3-azabicyclo[3.2.1]oct-3-yl)-5-oxo-5,6,7,8-tetrahydro-9-oxa-1,3,6-triazabenzocyclohepten-4-yl]-3-fluorophenyl}-3-methylurea]	7.47	>10000 nM	151 nM	6.25	
CCN1CC(C)(C)Oc2nc(N3CC4CCC(C3)O4)nc(-c3ccc(NC(=O)Nc4cnc(N(C)C)cn4)c(F)c3)c2C1=O [Example 234, 1-(5-Dimethylaminopyrazin-2-yl)-3-{4-[6-ethyl-8,8-dimethyl-2-(8-oxa-3-azabicyclo[3.2.1]oct-3-yl)-5-oxo-5,6,7,8-tetrahydro-9-oxa-1,3,6-triazabenzocyclohepten-4-yl]-2-fluorophenyl}urea]	7.17	>10000 nM	118 nM	5.64	
CCN1CC(C)(C)Oc2nc(N3CCOC[C@@H]3C)nc(-c3ccc(NC(=O)Nc4cccc(OC(F)F)c4)c(F)c3)c2C1=O [Example 212, 1-(3-Difluoromethoxyphenyl)-3-{4-[6-ethyl-8,8-dimethyl-2-((S)-3-methylmorpholin-4-yl)-5-oxo-5,6,7,8-tetrahydro-9-oxa-1,3,6-triazabenzocyclohepten-4-yl]-2-fluorophenyl}urea]	6.85	1540 nM	8 nM	7.15	
CCN1CC(C)(C)Oc2nc(N3CCOC[C@@H]3C)nc(-c3ccc(NC(=O)NC)c(F)c3)c2C1=O [Example 2, 1-{4-[6-Ethyl-8,8-dimethyl-2-((S)-3-methylmorpholin-4-yl)-5-oxo-5,6,7,8-tetrahydro-9-oxa-1,3,6-triazabenzocyclohepten-4-yl]-2-fluorophenyl}-3-methylurea]	7.66	547 nM	31 nM	6.85	
CCN1CC(C)(C)Oc2nc(N3CC4CCC(C3)O4)nc(-c3ccc(NC(=O)NCC4CCN(C)CC4)c(F)c3)c2C1=O [Example 130, 1-{4-[6-Ethyl-8,8-dimethyl-2-(8-oxa-3-azabicyclo[3.2.1]oct-3-yl)-5-oxo-5,6,7,8-tetrahydro-9-oxa-1,3,6-triazabenzocyclohepten-4-yl]-2-fluorophenyl}-3-(1-methylpiperidin-4-ylmethyl)urea]	5.67	>10000 nM	> 3000 nM	< 5.00	
CCN1CC(C)(C)Oc2nc(N3CC4CCC(C3)O4)nc(-c3ccc(NC(=O)Nc4ccc(N5CCOC[C@@H]5C)nc4)c(F)c3)c2C1=O [Example 29, 1-{4-[6-ethyl-8,8-dimethyl-2-(8-oxa-3-azabicyclo[3.2.1]oct-3-yl)-5-oxo-5,6,7,8-tetrahydro-9-oxa-1,3,6-triazabenzocyclohepten-4-yl]-2-fluorophenyl}-3-[6-((S)-3-methylmorpholin-4-yl)pyridin-3-yl]urea]	7.42	>10000 nM	32 nM	6.78	
CCN1CC(C)(C)Oc2nc(N3CCOCC3)nc(-c3ccc(NC(=O)OC)cc3)c2C1=O [Example 103, [4-(6-Ethyl-8,8-dimethyl-2-morpholin-4-yl-5-oxo-5,6,7,8-tetrahydro-9-oxa-1,3,6-triazabenzocyclohepten-4-yl)phenyl]carbamic acid methyl ester]	6.71	6590 nM	425 nM	5.45	
CCNC(=O)Nc1ccc(-c2nc(N3C4CCC3COC4)nc3c2C(=O)N(CC)CC(C)(C)O3)cc1F [Example 255, 1-Ethyl-3-{4-[6-ethyl-8,8-dimethyl-2-(3-oxa-8-azabicyclo[3.2.1]oct-8-yl)-5-oxo-5,6,7,8-tetrahydro-9-oxa-1,3,6-triazabenzocyclohepten-4-yl]-2-fluorophenyl}urea]	7.14	>10000 nM	68 nM	6.68	
CCN1CC(C)(C)Oc2nc(N3C[C@@H]4C[C@H]3CO4)nc(-c3ccc(NC(=O)NC)c(F)c3)c2C1=O [Example 206, 1-[4-((1S,4S)-6-Ethyl-8,8-dimethyl-2-2-oxa-5-azabicyclo[2.2.1]hept-5-yl-5-oxo-5,6,7,8-tetrahydro-9-oxa-1,3,6-triazabenzocyclohepten-4-yl)-2-fluorophenyl]-3-methylurea]	6.84	>10000 nM		5.87	87%
CCN1CC(C)(C)Oc2nc(N3CCOC[C@@H]3C)nc(-c3ccc(NC(=O)Nc4ccc(N5CCOCC5)cc4)c(F)c3)c2C1=O [Example 227, 1-{4-[6-Ethyl-8,8-dimethyl-2-((S)-3-methylmorpholin-4-yl)-5-oxo-5,6,7,8-tetrahydro-9-oxa-1,3,6-triazabenzocyclohepten-4-yl]-2-fluorophenyl}-3-(4-morpholin-4-ylphenyl)urea]	7.12	484 nM	7 nM	7.54	
CCN1CC(C)(C)Oc2nc(N3CCOC[C@@H]3C)nc(-c3ccc(NC(=O)NC4CC4)c(F)c3)c2C1=O [Example 150, 1-Cyclopropyl-3-{4-[6-ethyl-8,8-dimethyl-2-((S)-3-methylmorpholin-4-yl)-5-oxo-5,6,7,8-tetrahydro-9-oxa-1,3,6-triazabenzocyclohepten-4-yl]-2-fluorophenyl}urea]	7.40	5800 nM	73 nM	6.70	
CCN1CC(C)(C)Oc2nc(N3CC4CCC(C3)O4)nc(-c3ccc(NC(=O)Nc4cncc(OC)n4)cc3)c2C1=O [Example 28, 1-{4-[6-ethyl-8,8-dimethyl-2-(8-oxa-3-azabicyclo[3.2.1]oct-3-yl)-5-oxo-5,6,7,8-tetrahydro-9-oxa-1,3,6-triazabenzocyclohepten-4-yl]phenyl}-3-(6-methoxypyrazin-2-yl)urea]	7.23	>10000 nM	42 nM	6.29	
CCN1CC(C)(C)Oc2nc(N3CC4CCC(C3)O4)nc(-c3ccc(NC(=O)Nc4ccc(N5CCCCC5)nc4)c(F)c3)c2C1=O [Example 31, 1-{4-[6-Ethyl-8,8-dimethyl-2-(8-oxa-3-azabicyclo[3.2.1]oct-3-yl)-5-oxo-5,6,7,8-tetrahydro-9-oxa-1,3,6-triazabenzocyclohepten-4-yl]-2-fluorophenyl}-3-(3,4,5,6-tetrahydro-2H-[1,2′]bipyridinyl-5′-yl)urea]	7.19	>10000 nM	17 nM	7.46	
CN1CC(C)(C)Oc2nc(N3CC4CCC(C3)O4)nc(-c3ccc(NC(=O)Nc4ccncc4)c(F)c3)c2C1=O [Example 83, 1-{2-Fluoro-4-[6,8,8-trimethyl-2-(8-oxa-3-azabicyclo[3.2.1]oct-3-yl)-5-oxo-5,6,7,8-tetrahydro-9-oxa-1,3,6-triazabenzocyclohepten-4-yl]phenyl}-3-pyridin-4-ylurea]	7.70	1460 nM	16 nM	7.39	
CCNC(=O)Nc1ccc(-c2nc(N3CC4CCC(C3)O4)nc3c2C(=O)N(CCC(=O)O)CC(C)(C)O3)cc1 [Example 7, 3-[4-[4-(3-Ethylureido)phenyl]-8,8-dimethyl-2-(8-oxa-3-azabicyclo[3.2.1]oct-3-yl)-5-oxo-7,8-dihydro-5H-9-oxa-1,3,6-triazabenzocyclohepten-6-yl]propionic acid]	7.77	>10000 nM	> 3000 nM	< 5.00	
CCN1CC(C)(C)Oc2nc(N3CCOC[C@@H]3C)nc(-c3ccc(NC(=O)Nc4cccc(OC(F)F)c4)cc3)c2C1=O [Example 204, 1-(3-Difluoromethoxyphenyl)-3-{4-[6-ethyl-8,8-dimethyl-2-((S)-3-methylmorpholin-4-yl)-5-oxo-5,6,7,8-tetrahydro-9-oxa-1,3,6-triazabenzocyclohepten-4-yl]phenyl}urea]	7.21	468 nM	18 nM	7.13	
